Reference: article PMC11773474, “Roles for Prlhr/GPR10 and Npffr2/GPR74 in feeding responses to PrRP” (Molecular Metabolism, 2025)

How the values were obtained:
GPR147 = settings: cited from earlier work
Description: Thus, PrRP analogs like p52 might act via GPR147 to decrease food intake. It is not clear whether p52 and other PrRP analogs can suppress food intake via GRP10 and/or GPR74 in the absence of GPR147, but it would be interesting to assess this possibility, as well as potential roles for each of these rece ...

[1] = Pharmacokinetics: clearance of p52 from the blood of mice; format: in vivo, mouse; settings: LC-MS, n=6/group
Procedure: Supplemental Figure 2 . Quality analysis, in v itro potency, and clearance from the blood of mice for p52. A Analytical RP-HPLC spectrum for p52 was recorded using an Agilent 1260 Infinity system. B Spectrographic data from the analysis of purified p52 by single quadrupolar LC/MS using a Waters Mass Lynx 3100 platform. C Peptide in vitro potencies determined in CHO cells transfected with mouse GPR10 or GPR74 receptor.
For GPR74 potency was determined for peptide mediated inhibition of forskolin stimulated cAMP accumulation, as described (48). For GPR10 potency was determined in calcium mobilization assay in cells incubated with FLuo- 4AM calcium assay kit and measured on a FLIPR TETRA (Molecular Devices, Sunnyvale, CA). Shown are log(1/EC50) (1/nM) values for cAMP generation via GRP10 and GPR74 for p52, PrRP-31, and NPFF. ND- not detected. D Mice were injected with the indicated doses of p52.
Blood was drawn at the indicated times after dosing and p52 was quantified by LC-MS.
Shown are mean +/- STD; individual measurements are shown, as well; n=6/group. ND - […]
(1 picture or pasted object on this page, not shown here)

| p52 detectable in the circulation for at least 4 h ([1]; dose 1.5 mg/kg) | time p52 remained detectable in the circulation ([1]; dose 5 mg/kg) | Molecule | affinity for GPR147 (GPR147) |
| --- | --- | --- | --- |
|  |  | prolactin releasing peptide [PrRP] | measurable (albeit low) affinity |
| not | at least 4 h | CCCCCCCCCCCCCCCC(=O)N[C@@H](CO)C(=O)N[C@@H](CCCNC(=N)N)C(=O)N[C@H](C(=O)N[C@@H](Cc1c[nH]cn1)C(=O)N[C@@H](CCCNC(=N)N)C(=O)N[C@@H](Cc1c[nH]cn1)C(=O)N[C@@H](CO)C(=O)N[C@@H](CCCC)C(=O)N[C@@H](CCC(=O)O)C(=O)N[C@H](C(=O)N[C@@H](CCCNC(=N)N)C(=O)N[C@H](C(=O)N1CCC[C@H]1C(=O)N[C@@H](CC(=O)O)C(=O)N[C@H](C(=O)N[C@@H](CC(N)=O)C(=O)N1CCC[C@H]1C(=O)N[C@@H](C)C(=O)N[C@@H](Cc1c[nH]c2ccccc12)C(=O)N[C@@H](Cc1ccc(O)cc1)C(=O)N[C@@H](C)C(=O)N[C@@H](CO)C(=O)N[C@@H](CCCNC(=N)N)C(=O)NCC(=O)N[C@H](C(=O)N[C@@H](CCCNC(=N)N)C(=O)N1CCC[C@H]1C(=O)N[C@H](C(=O)NCC(=O)N[C@@H](CCCNC(=N)N)C(=O)N[C@@H](Cc1ccc([N+](=O)[O-])cc1)C(N)=O)C(C)C)[C@@H](C)CC)[C@@H](C)CC)[C@@H](C)O)[C@@H](C)CC)[C@@H](C)O [p52] |  |
